{"source": "BigSolDB 2.1"}
{"smiles": "O=[N+]([O-])c1ccc(Cl)c(Cl)c1", "values": [{"measurement": "solubility (mole fraction)", "setting": "in ethanol, 278.15 K", "result": 0.02}, {"measurement": "solubility (mole fraction)", "setting": "in ethanol, 280.65 K", "result": 0.0271}, {"measurement": "solubility (mole fraction)", "setting": "in ethanol, 283.15 K", "result": 0.0352}, {"measurement": "solubility (mole fraction)", "setting": "in ethanol, 285.65 K", "result": 0.0444}, {"measurement": "solubility (mole fraction)", "setting": "in ethanol, 288.15 K", "result": 0.0549}, {"measurement": "solubility (mole fraction)", "setting": "in ethanol, 290.65 K", "result": 0.0661}, {"measurement": "solubility (mole fraction)", "setting": "in ethanol, 293.15 K", "result": 0.0769}, {"measurement": "solubility (mole fraction)", "setting": "in ethanol, 295.65 K", "result": 0.0888}, {"measurement": "solubility (mole fraction)", "setting": "in ethanol, 298.15 K", "result": 0.0997}, {"measurement": "solubility (mole fraction)", "setting": "in ethanol, 300.65 K", "result": 0.111}, {"measurement": "solubility (mole fraction)", "setting": "in ethanol, 303.15 K", "result": 0.119}, {"measurement": "solubility (mole fraction)", "setting": "in methanol, 278.15 K", "result": 0.0208}, {"measurement": "solubility (mole fraction)", "setting": "in methanol, 280.65 K", "result": 0.0251}, {"measurement": "solubility (mole fraction)", "setting": "in methanol, 283.15 K", "result": 0.0296}, {"measurement": "solubility (mole fraction)", "setting": "in methanol, 285.65 K", "result": 0.0353}, {"measurement": "solubility (mole fraction)", "setting": "in methanol, 288.15 K", "result": 0.0422}, {"measurement": "solubility (mole fraction)", "setting": "in methanol, 290.65 K", "result": 0.0505}, {"measurement": "solubility (mole fraction)", "setting": "in methanol, 293.15 K", "result": 0.0611}, {"measurement": "solubility (mole fraction)", "setting": "in methanol, 295.65 K", "result": 0.0724}, {"measurement": "solubility (mole fraction)", "setting": "in methanol, 298.15 K", "result": 0.0873}, {"measurement": "solubility (mole fraction)", "setting": "in methanol, 300.65 K", "result": 0.105}, {"measurement": "solubility (mole fraction)", "setting": "in methanol, 303.15 K", "result": 0.125}]}
